Data published in patent US11390580B2, “Anti-fungals targeting the synthesis of fungal shingolipids” (THE RESEARCH FOUNDATION FOR THE STATE UNIVERSITY OF NEW YORK, priority 2014, dated 2022).
Converted amounts (≈) assume the structure as drawn. “And” between values parts separate entries of the source, which are not always exact repeats. Equal values may be shown once. “Also recorded” adds a separate entry of the source. Read-outs that look alike come from different tables or passages of the source.

Key:
[1] = tested on: Cryptococcus neoformans; assay: In vitro susceptibility testing (MIC); format: cell-based
[2] = tested on: Candida guilliermondii; assay: In vitro susceptibility testing (MIC); format: cell-based
[3] = tested on: Histoplasma capsulatum; format: cell-based
[4] = tested on: Coccidioides spp; assay: microbe, parasite or virus in culture; format: cell-based; details: for BHBM 48 Hr 50%: MIC, FTL strains
[5] = tested on: Paecilomyces variotii; assay: In vitro susceptibility testing (MIC); format: cell-based; details: for BHBM 24 Hr 50% / BHBM 48 Hr 50%: MIC, QC strain
[6] = tested on: C. neoformans H99; assay: Animal studies for cryptococcosis (intranasal infection); format: in vivo, mice
[7] = tested on: L2 cell line; assay: In vitro toxicity; format: cell-based
[8] = Pharmacokinetics of BHBM; format: in vivo, mice
Method: The mice from each group were sacrificed and blood samples were collected at pre-dose and 0.5, 1, 2, 4, 8, 12, and 24 post-administration into K2EDTA containing tubes. The samples were centrifuged immediately and plasma was collected and stored at −80° C. until analysis. Plasma samples were extracted using methylene chloride. […] After mixing, 1 ml of methylene chloride was added and the samples were vortex mixed for 30 seconds followed by centrifugation for 5 minutes. […] The residue was reconstituted in 100 μL acetonitrile: water (50:50) solution, mixed and transferred to mass spec vials. […] The mobile phase consisted of water: acetonitrile with 0.1% formic acid (50:50) ran at a flow rate of 200 μL/min. Aliquots of 5 μL were analyzed using LTQ-FT liquid chromatography/tandem mass spectrometer (LC/MS/MS) with electrospray source in the positive ion mode (ThermoFisher Scientific, Waltham, Mass.). The retention time of BHBM was 5.7 mins. The lower limit of quantification (LLOQ) was 10 ng/ml. Systemic exposure of BHBM in mice was quantified by calculating the AUC of the drug from pre-dose to the end of the dosing interval (AUC0-t) using the linear trapezoidal rule by non-compartmental analysis employing Phoenix winNonlin 6.3 (Pharsight Corp, Mountain View, Calif.). The elimination half-life (t1/2) was calculated as 0.693/λz, where λz is the terminal elimination rate constant. Bioavailability of IP route was calculated.

[9] = tested on: C. neoformans sphingolipids; assay: Sphingolipid levels by TLC and lipid mass spectrometry; format: cell-based, Cryptococcus neoformans
Method: Labeling fungal cells. […] Samples without drug were included as control. Before lipid extraction, lipid internal standards (C17 ceramide and C17 sphingosine) were added. Lipids were then extracted following the methods of […] and Bligh and Dyer and one fourth of the sample was aliquoted for determination of the inorganic phosphate. The remainder of the sample was subjected to base hydrolysis and then analyzed using LC/MS. Results were normalized with the inorganic phosphate levels.

[10] = tested on: Golgi morphology of C. albicans; assay: C6-NBD-ceramide staining of the Golgi; format: cell-based, Candida albicans; details: 4 μg/ml
Method: The Golgi apparatus of C. neoformans and C. albicans was stained with C6-NBD-ceramide using a previously described protocol (Kmetzsch, L. et al. 2011), based on the property that this fluorescent lipid accumulates at the Golgi of either living or fixed cells (Pagano R. E. et al. 1989). […] Cell suspensions were then washed with the same buffer and incubated with C6-NBD-ceramide ([…]) for 16 h at 4° C. The cells were then incubated with bovine serum albumin (BSA, 1%) at 4° C. for 1 h to remove the excess of C6-NBD-ceramide. […] Louis, USA) for 30 min at room temperature. The cells were washed again with PBS and stained cell suspensions were mounted over glass slides as described above and analyzed under an Axioplan 2 (Zeiss, Germany).

[11] = tested on: Candida spp; assay: In vitro susceptibility testing; format: cell-based; details: most Candida spp examined
[12] = tested on: P. murina
[13] = tested on: S. cerevisiae heterozygote library mutants
[14] = tested on: P. aeruginosa PA14; assay: Antibacterial activity, LB agar well diffusion; details: up to 160 μg/mL, 30° C., 24 hr
[15] = tested on: C. neoformans; assay: Resistance assay, daily passages in sub-MIC drug; details: 15 days of passages below the MIC
[16] = tested on: C. neoformans (H99); assay: Transmission electron microscopy of treated cells; details: 4 μg/mL, 6 hours
[17] = tested on: C. neoformans; assay: Synergistic assay (fractional inhibitory index, FIC)
[18] = C3H/HeN, mouse, in vivo, ip, 0.8 mg/kg
[19] = C3H/HeN, mouse, in vivo, ip, 1.6 mg/kg
[20] = TLC, confirmed by mass spectrometry

In the case of `Cc1ccccc1C(=O)NN=Cc1ccc(O)c(Br)c1` [BHBM, N′-(3-bromo-4-hydroxybenzylidene)-2-methylbenzohydrazide], the “in vitro activity” value [1] is reported as “good in vitro activity”, the MIC range ([1]; 4 MDP Lab strains, clinical isolates resistant to fluconazole) is reported as 1 to 2 µg/mL and the MIC range ([1]; 8 MDP Lab strains, clinical isolates sensitive to fluconazole) is reported as 0.5 to 2 µg/mL. For the same molecule, the MIC range ([1]; 13 Fungus Testing Lab strains) was 0.25 to 8 µg/mL, the MFC ([1]; Cryptococcus neoformans, read-out: MFC (minimum fungicidal concentration)) was 4 µg/mL (≈ 12 µM) and the “BHBM 72 Hr 50%” value ([1]; MIC, FTL strains) was 8 and >16 and 16. The “sensitivity of Fluconazole-resistant strains” value ([1]; all Fluconazole-resistant C. neoformans strains) was “sensitive”, the “BHBM 24 Hr 50%” value ([2]; MIC, FTL strains) was over 16 and the “BHBM 48 Hr 50%” value ([2]; MIC, FTL strains) was over 16. For the same molecule, the MIC ([2]; Meyerozyma guilliermondii, read-out: MIC (moderately active)) was 8 to 16 µg/mL (≈ 24 to 48 µM), the “in vitro activity” value [3] was “good in vitro activity” and the MIC range ([3]; 10 Fungus Testing Lab strains) was 0.125 to 1 µg/mL. For the same molecule, the MIC range ([4]; 10 Fungus Testing Lab strains) was 8 to 16 µg/mL, the MIC ([4]; Coccidioides, read-out: MIC (moderately active)) was 8 to 16 µg/mL (≈ 24 to 48 µM) and the “BHBM 48 Hr 50%” value [4] was 16 and 8 and >16. For the same molecule, the “BHBM 48 Hr 50%” value ([4]; first listing r7-r78) was 8 and 16, the “in vitro activity” value [5] was “not active” and the “BHBM 24 Hr 50%” value [5] was 8. The “BHBM 48 Hr 50%” value [5] was over 16, the “BHBM 24 Hr 50%” value ([5]; first listing r7-r78) was 8 and the “BHBM 48 Hr 50%” value ([5]; first listing r7-r78) was over 16. For the same molecule, the MIC range ([5]; QC, Fungus Testing Lab) was over 16 µg/mL, the mice surviving infection ([6]; 1.2 mg/Kg/day intraperitoneally, up to 60 days) was 90% and the “fungal burden in brain” value ([6]; 1.2 mg/Kg/day, day 60) was “No C. neoformans cells were found in brains”. For the same molecule, the “fungal burden in lung” value ([6]; 1.2 mg/Kg/day, day 60, compared to infected untreated mice) was “decrease the fungal burden in the lung”, the brain histology ([6]; day 60) was “no fungal cells and normal structure” and the lung histology ([6]; day 60) was “granulomatous response limited in few areas of the lung”. For the same molecule, the toxicity [7] was “slight to moderate toxicity”, the bioavailability [8, 18] was 93.6% and the half-life [8, 18] was 0.79 h. For the same molecule, the bioavailability [8, 19] was 100.33%, the half-life [8, 19] was 0.84 h and the half-life ([8]; C3H/HeN, mouse, in vivo, iv, 1.6 mg/kg) was 1.24 h. The bioavailability ([8]; C3H/HeN, mouse, plasma, 0.8 mg/kg, immunocompetent mice, IP low dose, read-out: bioavailability) was 93.6%, the half-life ([8]; C3H/HeN, mouse, plasma, intraperitoneal, 1.6 mg/kg) was about 1.4 h and the “systemic exposure (AUC0-t and Cmax)” value ([8]; IP administration, compared to normal group) was “higher in immunosuppressed/infected group”. It also gave a bioavailability ([8]; immunocompetent mice, IP high dose) of 90.59%, a half-life ([8]; immunocompetent mice, IP high dose (1.6 mg/kg)) of 1.43 h and a half-life ([8]; immunocompetent mice, IP low dose (0.8 mg/kg)) of 1.70 h. For the same molecule, the half-life ([8]; immunocompetent mice, IV high dose (1.6 mg/kg)) was 1.03 h, the sphingosine-1-phosphate level ([9]; TLC) was “increased” and the GlcCer level [9, 20] was “decreased”. The dihydroceramide level [9, 20] was “increased”, the sphingosine level [9, 20] was “increased; also recorded: accumulation of sphingosines” and the “level of IPC” value ([9]; data not shown) was “does not decrease the level of IPC”. For the same molecule, the Golgi morphology [10] was “changes in the Golgi morphology were dramatic”, the in vitro susceptibility [11] was “resistant” and the “improvement in survival, low dose vs vehicle treated negative controls” value ([12]; 0.8 mg/Kg/twice a day, 13 days) was “the difference was not significant”. The “survival, low dose vs high dose” value ([12]; 0.8 or 1.6 mg/Kg/twice a day, 13 days) was “low dose mice showed improved survival over the high dose mice”, the “number of asci and nuclei in lung homogenates vs negative control” value ([12]; 13 days of treatment) was “No significant differences” and the “Fold increased sensitivity to BHBM” value ([13]; ACT1 heterozygote mutant) was 2.0 Fold. For the same molecule, the “Fold increased sensitivity to BHBM” value ([13]; GLC7 heterozygote mutant) was 2.1 Fold, the “Fold increased sensitivity to BHBM” value ([13]; GOS1 heterozygote mutant) was 2.1 Fold and the “Fold increased sensitivity to BHBM” value ([13]; MTW1 heterozygote mutant) was 2.5 Fold. The “Fold increased sensitivity to BHBM” value ([13]; PEP7 heterozygote mutant) was 2.2 Fold, the “Fold increased sensitivity to BHBM” value ([13]; REG1 heterozygote mutant) was 2.5 Fold and the “Fold increased sensitivity to BHBM” value ([13]; RET2 heterozygote mutant) was 3.8 Fold. For the same molecule, the “Fold increased sensitivity to BHBM” value ([13]; RET3 heterozygote mutant) was 2.0 Fold, the “times more sensitive to BHBM” value ([13]; Rvs167) was 1.7 time and the “Fold increased sensitivity to BHBM” value ([13]; SAP4 heterozygote mutant) was 2.1 Fold. For the same molecule, the “Fold increased sensitivity to BHBM” value ([13]; SEC26 heterozygote mutant) was 2. Fold, the “Fold increased sensitivity to BHBM” value ([13]; SEC31 heterozygote mutant) was 2.1 Fold and the “Fold increased sensitivity to BHBM” value ([13]; SNF8 heterozygote mutant) was 2.1 Fold. For the same molecule, the “Fold increased sensitivity to BHBM” value ([13]; SPT4 heterozygote mutant) was 2.3 Fold, the “Fold increased sensitivity to BHBM” value ([13]; UBP3 heterozygote mutant) was 3.0 Fold and the “Fold increased sensitivity to BHBM” value ([13]; VPS3 heterozygote mutant) was 2.0 Fold. For the same molecule, the “Fold increased sensitivity to BHBM” value ([13]; YML018C heterozygote mutant) was 2.1 Fold, the zone of inhibition [14] was “No zone of inhibition” and the development of resistance [15] was “do not develop resistance”. The “number of vacuoles per μm^2 of cell surface area” value [16] was 0.84±0.58, the FIC index ([17]; combined with Amphotericin B) was 0.75 and the FIC index ([17]; combined with Fluconazole) was 0.38. For the same molecule, the interaction ([17]; combined with Tunicamycin) was “synergistic” and the FIC index ([17]; combined with caspofungin) was 1.
